What was measured:
healthy subjects [1] = test system: healthy subjects; design: method as in earlier work; settings: cited from earlier work
healthy subjects [2] = experiment: Adverse event monitoring; type: in vivo, human
Text: Blood and urine samples for conventional clinical laboratory safety tests were obtained at the screening visit, in the morning of each main profiling day, and on Day 19. Adverse events (AEs) were monitored throughout the study.

[3] = design: method as in PMID 20690782; settings: cited from earlier work
[4] = cited from earlier work
[5] = Steady-state plasma pharmacokinetics (HPLC-MS/MS) in healthy men; oral roflumilast 500 μg once daily, inhaled formoterol 24 μg twice daily; settings: for AUC / Cmax: male, human, plasma, oral; for AUC: AUCτ; for AUC / Cmax / C trough / CL/F: steady state, geometric mean (68% range)
Experimental: For Regimen A, subjects received 500 μg oral roflumilast once daily (daily dose: one tablet of roflumilast 500 μg) from the morning of Day 2 to the morning of Day 18. […] For Regimen B, subjects received 24 μg formoterol for oral inhalation delivered by a DPI device (Foradil® P) twice daily, once in the morning and once in the evening from the morning of Day 2 to the evening of Day 18.
Pre-dose blood samples for determination of trough levels were taken on Days 9 and 10 for Regimen A (morning only), and on Days 6 and 7 (morning and evening) for Regimen B. Blood samples (4.5 mL) were collected in heparinised tubes and plasma was obtained by centrifugation at 1550 g for 15 minutes. Plasma samples were stored at -20°C or below for roflumilast, and at -70°C for formoterol. Plasma concentrations of roflumilast and roflumilast N-oxide were determined using high-performance liquid chromatography coupled with tandem mass spectrometry (HPLC-MS/MS). […] Roflumilast and roflumilast N-oxide standard curves were valid up to 20 ng/mL and 40 ng/mL, respectively. Determination of roflumilast and roflumilast N-oxide was performed at Altana Pharma AG, Konstanz, Germany (Nycomed GmbH). Plasma concentrations of formoterol were determined using HPLC-MS/MS. The LLOQ in plasma was 0.4 pg/mL using a sample volume of 1.0 mL. […] Determination of formoterol was performed at pharm-analyt Labor GmbH, Baden, Austria, under the supervision of Altana Pharma AG(Nycomed GmbH).
For roflumilast, roflumilast N-oxide and formoterol, the maximum plasma concentration (Cmax) was derived directly from the plasma concentrations. The AUC from time zero to the time of the last quantifiable concentration, which corresponded to the dosing interval of each analyte (AUC0-τ), was estimated using the linear trapezoidal method. Apparent clearance at steady state (CL/F; calculated by dose/AUCτ) was reported for roflumilast only. […] The calculation of tPDE4i was based on the equation described in Lahu et al..

healthy subjects [6] = experiment: Digital 12-lead electrocardiography (HR, QT, QTc); type: in vivo, human
Experimental: Digital 12-lead ECGs were recorded immediately after each ZCG recording. Tracings were analysed off-study by regimen-blinded qualified analysts, using previously reported methodology. For each time point, three cycles were measured with regard to the RR, PQ and QT-intervals [ms]. The means of the three measurements were used for the calculation of HR and HR-corrected QTc intervals, according to Bazett's equation (QTcB = QT/RR^1/2) and Fridericia's equation (QTcF = QT/RR^1/3).

[7] = 500 μg, Regimen A Day 11 (roflumilast alone)
[8] = Regimen A Day 18 (roflumilast plus formoterol)
[9] = Regimen B Day 18 (formoterol plus roflumilast)
[10] = Regimen A Day 11 (roflumilast alone)

- steady-state AUC and Cmax values lower ([5]; Regimen B Day 18 (co-administered with formoterol) compared with Regimen A Day 11 or Day 18): 10-15%
- changes in peak concentration and exposure ([5]; concomitant inhaled formoterol compared with roflumilast alone): less than 1%
- changes in steady-state pharmacokinetics when the other drug was added ([5]; formoterol added to roflumilast, or roflumilast added to formoterol): no relevant changes
- AUC [5, 7]: 35.8 ng·h/mL
- Cmax [5, 7]: 6.89 ng/mL
- AUC [5, 8]: 36.9 ng·h/mL
- AUC [5, 9]: 31.8 ng·h/mL
- Cmax [5, 8]: 6.43 ng/mL
- Cmax [5, 9]: 5.92 ng/mL
- C trough [5, 10]: 0.53 (0.33-0.85) μg/L
- CL/F [5, 10]: 13.9 (10.8-17.9) L/h
- C trough [5, 8]: 0.50 (0.29-0.86) μg/L
- CL/F [5, 8]: 13.5 (10.3-17.7) L/h
- C trough [5, 9]: 0.37 (0.18-0.77) μg/L
- CL/F [5, 9]: 15.7 (10.4-23.5) L/h
Structure (SMILES): O=C(Nc1c(Cl)cncc1Cl)c1ccc(OC(F)F)c(OCC2CC2)c1 [Roflumilast, 3-cyclopropylmethoxy-N-(3,5-dichloropyridin-4-yl)-4-(difluoromethoxy)benzamide]
- effect on cardiac repolarisation (QT/QTc interval) (healthy subjects [1]): no significant effect
- number of AEs (healthy subjects [2]; Regimen A, Day 2 to Day 11): 17 AEs
- subjects who experienced AEs (healthy subjects [2]; Regimen A, Day 2 to Day 11, n = 12): 7 subjects
- dizziness reports (healthy subjects [2]; Regimen A, roflumilast alone): four
- myalgia reports (healthy subjects [2]; Regimen A, roflumilast alone): four
- tremor (healthy subjects [2]; administered alone (Regimens A and B respectively)): not observed
- increase in tPDE4i expected in patients with COPD compared with healthy individuals [3]: 12.6%
- median effective plasma half-life ([4]; repeated dose): 17 h
- mean bioavailability ([4]; single oral 500 μg dose, healthy individuals): 79%
- dose dependence of pharmacokinetics ([4]; within the 250-1000 μg dose range): dose-proportional
- HR (ECG) (healthy subjects [6]; 12-lead ECG): slight increase
- QTc values, uncorrected or corrected using Bazett's or Fridericia's formula (healthy subjects [6]; 12-lead ECG): no clinically relevant changes
- duration of the QT interval (healthy subjects [6]; 12-lead ECG): decrease
- QT/QTc intervals (healthy subjects [6]; all subjects, all regimens): below 450 ms
